According to patent US9211310B2, “Use of a Chinese medicine composition in preparing medicaments for treating secondary prevention of myocardial infarction” (TASLY PHARMACEUTICAL GROUP CO., LTD, priority 2010, dated 2015):

Tested on: patients after acute myocardial infarction
Assay: Life quality, Seattle Angina Questionnaire (SAQ), same clinical trial
Assay type: in vivo, human
Settings: PP
Excerpt: 3508 patients who were in accordance with the diagnostic standards of AMI for 28 days to 2 years and differentiated as Qi deficiency and blood stagnation syndrome by TCM were studied. 0.5 g Chinese medicine composition prepared by the method of EXAMPLE 1 (Coded as QSYQ) was administrated half an hour after meal, 3 times per day.
There were 19 questions in the Seattle angina questionnaire (SAQ), including 5 parts: physical limitation (PL), anginal stability (AS), anginal frequency (AF), treatment satisfaction (TS) and disease perception (DP). After being given necessary explanation by doctors, the questions were answered independently by patients.
They included the overall survival time, angina pectoris score, TCM symptom score and life quality score, where angina pectoris score, TCM symptom score and life quality score were evaluated at randomization, in 1st, 3rd, 6th, 9th, 12th month after treatment and 18th month after follow-up.
All evaluation results of SAQ were described during the period of observation, and Wilcoxon rank sum test was used for inter-group comparison.
The evaluation results in the SAQ were depicted in different observations, and inter-group comparison was tested by Wilcoxon Rank-sum test.

CC(=O)Oc1ccccc1C(=O)O [Control group, aspirine]
9th question: Severe, patients (%) (12 months after treatment): (0.21%)
9th question: Uneffective, patients (%) (12 months after treatment): (24.25%)
10th question: Dissatisfied, patients (%) (12 months after treatment): (18.68%)
10th question: Highly satisfied, patients (%) (12 months after treatment): (8.26%)
10th question: Mostly dissatisfied, patients (%) (12 months after treatment): (18.61%)
10th question: Mostly satisfied, patients (%) (12 months after treatment): (31.84%)
10th question: Partly dissatisfied, patients (%) (12 months after treatment): (22.60%)
11th question: Continuously worried, patients (%) (12 months after treatment): (1.96%)
11th question: No worried, patients (%) (12 months after treatment): (7.42%)
11th question: Occasionally worried, patients (%) (12 months after treatment): (40.59%)
11th question: Often worried, patients (%) (12 months after treatment): (7.98%)
11th question: Seldom worried, patients (%) (12 months after treatment): (42.06%)
SAQ 4th question, 1-2 times per week: % of patients (12 months after treatment): (10.29%)
SAQ 4th question, 1-2 times per week: number of patients (12 months after treatment): 147
SAQ 4th question, 1-3 times per week: % of patients (12 months after treatment): (3.36%)
SAQ 4th question, 1-3 times per week: number of patients (12 months after treatment): 48
SAQ 4th question, <1 time per week: % of patients (12 months after treatment): (16.38%)
SAQ 4th question, <1 time per week: number of patients (12 months after treatment): 234
SAQ 4th question, Not used: % of patients (12 months after treatment): (67.74%)
SAQ 4th question, Not used: number of patients (12 months after treatment): 968
SAQ 4th question, ≧3 times per week: % of patients (12 months after treatment): (2.24%)
SAQ 4th question, ≧3 times per week: number of patients (12 months after treatment): 32
SAQ 4th question, ≧4 times per day: % of patients (12 months after treatment): (0.00%)
SAQ 4th question, ≧4 times per day: number of patients (12 months after treatment): 0
SAQ 5th question, 1-2 times per week: % of patients (12 months after treatment): (34.01%)
SAQ 5th question, 1-2 times per week: number of patients (12 months after treatment): 486
SAQ 5th question, 1-3 times per day: % of patients (12 months after treatment): (4.13%)
SAQ 5th question, 1-3 times per day: number of patients (12 months after treatment): 59
SAQ 5th question, <1 time per week: % of patients (12 months after treatment): (30.58%)
SAQ 5th question, <1 time per week: number of patients (12 months after treatment): 437
SAQ 5th question, No onset: % of patients (12 months after treatment): (5.67%)
SAQ 5th question, No onset: number of patients (12 months after treatment): 81
SAQ 5th question, ≧3 times per week: % of patients (12 months after treatment): (25.33%)
SAQ 5th question, ≧3 times per week: number of patients (12 months after treatment): 362
SAQ 5th question, ≧4 times per day: % of patients (12 months after treatment): (0.28%)
SAQ 5th question, ≧4 times per day: number of patients (12 months after treatment): 4
SAQ 6th question, Dissatisfied: % of patients (12 months after treatment): (0.07%)
SAQ 6th question, Dissatisfied: number of patients (12 months after treatment): 1
SAQ 6th question, Highly satisfied: % of patients (12 months after treatment): (27.78%)
SAQ 6th question, Highly satisfied: number of patients (12 months after treatment): 397
SAQ 6th question, Mostly dissatisfied: % of patients (12 months after treatment): (0.84%)
SAQ 6th question, Mostly dissatisfied: number of patients (12 months after treatment): 12
SAQ 6th question, Mostly satisfied: % of patients (12 months after treatment): (61.72%)
SAQ 6th question, Mostly satisfied: number of patients (12 months after treatment): 882
SAQ 6th question, Partly satisfied: % of patients (12 months after treatment): (9.59%)
SAQ 6th question, Partly satisfied: number of patients (12 months after treatment): 137
SAQ 7th question, Dissatisfied: % of patients (12 months after treatment): (0.07%)
SAQ 7th question, Dissatisfied: number of patients (12 months after treatment): 1
SAQ 7th question, Highly satisfied: % of patients (12 months after treatment): (31.25%)
SAQ 7th question, Highly satisfied: number of patients (12 months after treatment): 446
SAQ 7th question, Mostly dissatisfied: % of patients (12 months after treatment): (0.28%)
SAQ 7th question, Mostly dissatisfied: number of patients (12 months after treatment): 4
SAQ 7th question, Mostly satisfied: % of patients (12 months after treatment): (60.34%)
SAQ 7th question, Mostly satisfied: number of patients (12 months after treatment): 861
SAQ 7th question, Partly satisfied: % of patients (12 months after treatment): (8.06%)
SAQ 7th question, Partly satisfied: number of patients (12 months after treatment): 115
SAQ Question 1-1 Mildly limited, number of patients (12 months after treatment): 7
SAQ Question 1-1 Mildly limited, percent of patients (12 months after treatment): (0.49%)
SAQ Question 1-1 Moderately limited, number of patients (12 months after treatment): 1
SAQ Question 1-1 Moderately limited, percent of patients (12 months after treatment): (0.07%)
SAQ Question 1-1 Not limited, number of patients (12 months after treatment): 1371
SAQ Question 1-1 Not limited, percent of patients (12 months after treatment): (96.28%)
SAQ Question 1-1 Other reasons, number of patients (12 months after treatment): 4
SAQ Question 1-1 Other reasons, percent of patients (12 months after treatment): (0.28%)
SAQ Question 1-1 Severely limited, number of patients (12 months after treatment): 0
SAQ Question 1-1 Severely limited, percent of patients (12 months after treatment): (0.00%)
SAQ Question 1-1 Slightly limited, number of patients (12 months after treatment): 41
SAQ Question 1-1 Slightly limited, percent of patients (12 months after treatment): (2.88%)
SAQ Question 1-2 Mildly limited, number of patients (12 months after treatment): 8
SAQ Question 1-2 Mildly limited, percent of patients (12 months after treatment): (0.56%)
SAQ Question 1-2 Moderately limited, number of patients (12 months after treatment): 1
SAQ Question 1-2 Moderately limited, percent of patients (12 months after treatment): (0.07%)
SAQ Question 1-2 Not limited, number of patients (12 months after treatment): 1365
SAQ Question 1-2 Not limited, percent of patients (12 months after treatment): (95.79%)
SAQ Question 1-2 Other reasons, number of patients (12 months after treatment): 6
SAQ Question 1-2 Other reasons, percent of patients (12 months after treatment): (0.42%)
SAQ Question 1-2 Severely limited, number of patients (12 months after treatment): 0
SAQ Question 1-2 Severely limited, percent of patients (12 months after treatment): (0.00%)
SAQ Question 1-2 Slightly limited, number of patients (12 months after treatment): 45
SAQ Question 1-2 Slightly limited, percent of patients (12 months after treatment): (3.16%)
SAQ Question 1-6: Mildly limited, patients (%) (12 months after treatment): (13.45%)
SAQ Question 1-6: Moderately limited, patients (%) (12 months after treatment): (9.58%)
SAQ Question 1-6: Not limited, patients (%) (12 months after treatment): (42.39%)
SAQ Question 1-6: Other reasons, patients (%) (12 months after treatment): (0.92%)
SAQ Question 1-6: Severely limited, patients (%) (12 months after treatment): (1.76%)
SAQ Question 1-6: Slightly limited, patients (%) (12 months after treatment): (31.90%)
SAQ Question 1-7: Mildly limited, patients (%) (12 months after treatment): (20.24%)
SAQ Question 1-7: Moderately limited, patients (%) (12 months after treatment): (9.84%)
SAQ Question 1-7: Not limited, patients (%) (12 months after treatment): (21.81%)
SAQ Question 1-7: Other limited, patients (%) (12 months after treatment): (3.56%)
SAQ Question 1-7: Severely limited, patients (%) (12 months after treatment): (12.05%)
SAQ Question 1-7: Slightly limited, patients (%) (12 months after treatment): (32.50%)
SAQ Question 1-8: Mildly limited, patients (%) (12 months after treatment): (24.98%)
SAQ Question 1-8: Moderately limited, patients (%) (12 months after treatment): (12.17%)
SAQ Question 1-8: Not limited, patients (%) (12 months after treatment): (14.53%)
SAQ Question 1-8: Other reasons, patients (%) (12 months after treatment): (4.22%)
SAQ Question 1-8: Severely limited, patients (%) (12 months after treatment): (15.68%)
SAQ Question 1-8: Slightly limited, patients (%) (12 months after treatment): (28.42%)
8th question: Dissatisfied, patients (%) (Baseline): (0.87%)
8th question: Highly satisfied, patients (%) (Baseline): (14.83%)
8th question: Mostly dissatisfied, patients (%) (Baseline): (6.61%)
8th question: Mostly satisfied, patients (%) (Baseline): (45.16%)
8th question: Partly satisfied, patients (%) (Baseline): (32.53%)
9th question: Few, patients (%) (Baseline): (20.91%)
9th question: Mild, patients (%) (Baseline): (37.01%)
9th question: Moderate, patients (%) (Baseline): (26.99%)
9th question: Severe, patients (%) (Baseline): (3.34%)
9th question: Uneffective, patients (%) (Baseline): (11.76%)
10th question: Dissatisfied, patients (%) (Baseline): (25.25%)
10th question: Highly satisfied, patients (%) (Baseline): (2.07%)
10th question: Mostly dissatisfied, patients (%) (Baseline): (24.11%)
10th question: Mostly satisfied, patients (%) (Baseline): (16.30%)
10th question: Partly satisfied, patients (%) (Baseline): (32.26%)
11th question: Continuously worried, patients (%) (Baseline): (9.21%)
11th question: No worried, patients (%) (Baseline): (3.94%)
11th question: Occasionally worried, patients (%) (Baseline): (41.32%)
11th question: Often worried, patients (%) (Baseline): (25.10%)
11th question: Seldom worried, patients (%) (Baseline): (20.43%)
SAQ 4th question, 1-2 times per week: % of patients (Baseline): (20.17%)
SAQ 4th question, 1-2 times per week: number of patients (Baseline): 301
SAQ 4th question, 1-3 times per day: % of patients (Baseline): (8.78%)
SAQ 4th question, 1-3 times per day: number of patients (Baseline): 131
SAQ 4th question, <1 time per week: % of patients (Baseline): (9.52%)
SAQ 4th question, <1 time per week: number of patients (Baseline): 142
SAQ 4th question, Not used: % of patients (Baseline): (43.16%)
SAQ 4th question, Not used: number of patients (Baseline): 644
SAQ 4th question, ≧3 times per week: % of patients (Baseline): (17.43%)
SAQ 4th question, ≧3 times per week: number of patients (Baseline): 260
SAQ 4th question, ≧4 times per day: % of patients (Baseline): (0.94%)
SAQ 4th question, ≧4 times per day: number of patients (Baseline): 14
SAQ 5th question, Few: % of patients (Baseline): (19.21%)
SAQ 5th question, Few: number of patients (Baseline): 287
SAQ 5th question, Mild: % of patients (Baseline): (31.26%)
SAQ 5th question, Mild: number of patients (Baseline): 467
SAQ 5th question, Moderate: % of patients (Baseline): (21.29%)
SAQ 5th question, Moderate: number of patients (Baseline): 318
SAQ 5th question, None: % of patients (Baseline): (22.02%)
SAQ 5th question, None: number of patients (Baseline): 329
SAQ 5th question, Not medicated by doctors: % of patients (Baseline): (3.01%)
SAQ 5th question, Not medicated by doctors: number of patients (Baseline): 45
SAQ 5th question, Severe: % of patients (Baseline): (3.21%)
SAQ 5th question, Severe: number of patients (Baseline): 48
SAQ 6th question, Dissatisfied: % of patients (Baseline): (1.14%)
SAQ 6th question, Dissatisfied: number of patients (Baseline): 17
SAQ 6th question, Highly satisfied: % of patients (Baseline): (14.90%)
SAQ 6th question, Highly satisfied: number of patients (Baseline): 223
SAQ 6th question, Mostly dissatisfied: % of patients (Baseline): (6.48%)
SAQ 6th question, Mostly dissatisfied: number of patients (Baseline): 97
SAQ 6th question, Mostly satisfied: % of patients (Baseline): (44.29%)
SAQ 6th question, Mostly satisfied: number of patients (Baseline): 663
SAQ 6th question, Partly satisfied: % of patients (Baseline): (33.20%)
SAQ 6th question, Partly satisfied: number of patients (Baseline): 497
SAQ 7th question, Dissatisfied: % of patients (Baseline): (0.33%)
SAQ 7th question, Dissatisfied: number of patients (Baseline): 5
